# In publication PMC8537953 (Viruses, 2021):
# Where two headings read alike, the source gives them in different places.
# Experiments:
# influenza A = details: read-out: in vitro EC50 (influenza A); cited from earlier work
# [1] = cited from earlier work
# [2] = human, in vivo, cited from earlier work
# in vitro = details: human
# SARS-CoV-2 [3] = details: read-out: EC50 against SARS-CoV-2; cited from earlier work
# SARS-CoV-2 [4] = assay: microbe, parasite or virus in culture; type: cell-based; details: Severe acute respiratory syndrome coronavirus 2, Vero C1008, 6 h, read-out: % inhibition of SARS-CoV-2 infection, post-entry treatment
compound,measurement,setting,value
"NC12CC3CC(CC(C3)C1)C2 [Amantadine, amantadine]",EC50,influenza A,16 µM
same,"PPB, plasma protein binding, % of compound bound to plasma proteins",[1]; plasma,67%
same,Cmax,[2]; 200 mg,2.7 µM
same,viability,in vitro,> 50%
"CC12CC3CC(C)(C1)CC(N)(C3)C2 [Memantine, memantine]","PPB, plasma protein binding, % of compound bound to plasma proteins",[1]; ref FDA reports,45%
"CCC(CC)COC(=O)[C@H](C)N[P@](=O)(OC[C@H]1O[C@@](C#N)(c2ccc3c(N)ncnn23)[C@H](O)[C@@H]1O)Oc1ccccc1 [Remdesivir, remdesivir]",EC50,SARS-CoV-2 [3],2.5 µM
"CC(N)C12CC3CC(CC(C3)C1)C2 (centres unmarked) [Rimantadine, rimantadine]",Cmax,[2],2.2 µM
same,inhibition at 230 µM,SARS-CoV-2 [4],> 99%
